{"source": "BindingDB's records for doi:10.1016/j.ejmech.2019.02.016", "about": "(National Health Research Institutes, 2019)"}
{"experiment": "Inhibition of NS5A in HCV genotype 1b infected in human HuH7 replicon cells assessed as reduction in subgenomic viral RNA replication treated for 2 days followed by compound washout and subsequent compound dosing measured after 1 day by SEAP reporter gene assay", "units": {"EC50": "nM"}}
{"smiles": "O=C(CCN1CCCCC1)N[C@H](C(=O)N1CCC[C@H]1c1ncc(-c2ccc(-c3ccc(-c4cnc([C@@H]5CCCN5C(=O)[C@H](NC(=O)CCN5CCCCC5)c5ccccc5)s4)cc3)cc2)s1)c1ccccc1", "EC50": 16}
{"smiles": "O=C(CCN1CCCC1)N[C@H](C(=O)N1CCC[C@H]1c1ncc(-c2ccc(-c3ccc(-c4cnc([C@@H]5CCCN5C(=O)[C@H](NC(=O)CCN5CCCC5)c5ccccc5)s4)cc3)cc2)s1)c1ccccc1", "EC50": 23}
{"smiles": "O=C(CCn1cccc1)N[C@H](C(=O)N1CCC[C@H]1c1ncc(-c2ccc(-c3ccc(-c4cnc([C@@H]5CCCN5C(=O)[C@H](NC(=O)CCn5cccc5)c5ccccc5)s4)cc3)cc2)s1)c1ccccc1", "EC50": 0.23}
{"smiles": "O=C(N[C@H](C(=O)N1CCC[C@H]1c1ncc(-c2ccc(-c3ccc(-c4cnc([C@@H]5CCCN5C(=O)[C@H](NC(=O)N5CCCCC5)c5ccccc5)s4)cc3)cc2)s1)c1ccccc1)N1CCCCC1", "EC50": 1.9}
{"smiles": "O=C(N[C@H](C(=O)N1CCC[C@H]1c1ncc(-c2ccc(-c3ccc(-c4cnc([C@@H]5CCCN5C(=O)[C@H](NC(=O)N5CCCC5)c5ccccc5)s4)cc3)cc2)s1)c1ccccc1)N1CCCC1", "EC50": 1.3}
{"smiles": "O=C(N[C@H](C(=O)N1CCC[C@H]1c1ncc(-c2ccc(-c3ccc(-c4cnc([C@@H]5CCCN5C(=O)[C@H](NC(=O)c5cccs5)c5ccccc5)s4)cc3)cc2)s1)c1ccccc1)c1cccs1", "EC50": 110}
{"smiles": "O=C(N[C@H](C(=O)N1CCC[C@H]1c1ncc(-c2ccc(-c3ccc(-c4cnc([C@@H]5CCCN5C(=O)[C@H](NC(=O)c5ccoc5)c5ccccc5)s4)cc3)cc2)s1)c1ccccc1)c1ccoc1", "EC50": 0.63}
{"smiles": "O=C(N[C@H](C(=O)N1CCC[C@H]1c1ncc(-c2ccc(-c3ccc(-c4cnc([C@@H]5CCCN5C(=O)[C@H](NC(=O)c5ccco5)c5ccccc5)s4)cc3)cc2)s1)c1ccccc1)c1ccco1", "EC50": 1.7}
{"smiles": "O=C(N[C@H](C(=O)N1CCC[C@H]1c1ncc(-c2ccc(-c3ccc(-c4cnc([C@@H]5CCCN5C(=O)[C@H](NC(=O)c5cccnc5)c5ccccc5)s4)cc3)cc2)s1)c1ccccc1)c1cccnc1", "EC50": 2.1}
{"smiles": "O=C(N[C@H](C(=O)N1CCC[C@H]1c1ncc(-c2ccc(-c3ccc(-c4cnc([C@@H]5CCCN5C(=O)[C@H](NC(=O)c5ccccc5)c5ccccc5)s4)cc3)cc2)s1)c1ccccc1)c1ccccc1", "EC50": 272}
{"smiles": "O=C(N[C@H](C(=O)N1CCC[C@H]1c1ncc(-c2ccc(-c3ccc(-c4cnc([C@@H]5CCCN5C(=O)[C@H](NC(=O)C5CCC5)c5ccccc5)s4)cc3)cc2)s1)c1ccccc1)C1CCC1", "EC50": 0.45}
{"smiles": "O=C(N[C@H](C(=O)N1CCC[C@H]1c1ncc(-c2ccc(-c3ccc(-c4cnc([C@@H]5CCCN5C(=O)[C@H](NC(=O)C5CC5)c5ccccc5)s4)cc3)cc2)s1)c1ccccc1)C1CC1", "EC50": 1.5}
{"smiles": "CC(C)(C)C(=O)N[C@H](C(=O)N1CCC[C@H]1c1ncc(-c2ccc(-c3ccc(-c4cnc([C@@H]5CCCN5C(=O)[C@H](NC(=O)C(C)(C)C)c5ccccc5)s4)cc3)cc2)s1)c1ccccc1", "EC50": 52}
{"smiles": "CCCCC(=O)N[C@H](C(=O)N1CCC[C@H]1c1ncc(-c2ccc(-c3ccc(-c4cnc([C@@H]5CCCN5C(=O)[C@H](NC(=O)CCCC)c5ccccc5)s4)cc3)cc2)s1)c1ccccc1", "EC50": 7.6}
{"smiles": "CCCC(=O)N[C@H](C(=O)N1CCC[C@H]1c1ncc(-c2ccc(-c3ccc(-c4cnc([C@@H]5CCCN5C(=O)[C@H](NC(=O)CCC)c5ccccc5)s4)cc3)cc2)s1)c1ccccc1", "EC50": 0.77}
{"smiles": "CCC(=O)N[C@H](C(=O)N1CCC[C@H]1c1ncc(-c2ccc(-c3ccc(-c4cnc([C@@H]5CCCN5C(=O)[C@H](NC(=O)CC)c5ccccc5)s4)cc3)cc2)s1)c1ccccc1", "EC50": 0.85}
{"smiles": "CCN(CC)CCC(=O)N[C@@H](C(=O)N1CCC[C@H]1c1ncc(-c2ccc(-c3ccc(-c4cnc([C@@H]5CCCN5C(=O)[C@H](NC(=O)CCN(CC)CC)c5ccccc5)s4)cc3)cc2)s1)c1ccccc1", "EC50": 1}
{"smiles": "CN(C)CCC(=O)N[C@@H](C(=O)N1CCC[C@H]1c1ncc(-c2ccc(-c3ccc(-c4cnc([C@@H]5CCCN5C(=O)[C@H](NC(=O)CCN(C)C)c5ccccc5)s4)cc3)cc2)s1)c1ccccc1", "EC50": 2.5}
{"smiles": "O=C(N[C@@H](C(=O)N1CCC[C@H]1c1ncc(-c2ccc(-c3ccc(-c4cnc([C@@H]5CCCN5C(=O)[C@H](NC(=O)N5CCCCC5)c5ccccc5)s4)cc3)cc2)s1)c1ccccc1)N1CCCCC1", "EC50": 0.016}
{"smiles": "O=C(N[C@@H](C(=O)N1CCC[C@H]1c1ncc(-c2ccc(-c3ccc(-c4cnc([C@@H]5CCCN5C(=O)[C@H](NC(=O)N5CCCC5)c5ccccc5)s4)cc3)cc2)s1)c1ccccc1)N1CCCC1", "EC50": 0.035}
{"smiles": "O=C(N[C@@H](C(=O)N1CCC[C@H]1c1ncc(-c2ccc(-c3ccc(-c4cnc([C@@H]5CCCN5C(=O)[C@H](NC(=O)c5ccsc5)c5ccccc5)s4)cc3)cc2)s1)c1ccccc1)c1ccsc1", "EC50": 0.53}
{"smiles": "O=C(N[C@@H](C(=O)N1CCC[C@H]1c1ncc(-c2ccc(-c3ccc(-c4cnc([C@@H]5CCCN5C(=O)[C@H](NC(=O)c5ccco5)c5ccccc5)s4)cc3)cc2)s1)c1ccccc1)c1ccco1", "EC50": 0.07}
{"smiles": "O=C(N[C@@H](C(=O)N1CCC[C@H]1c1ncc(-c2ccc(-c3ccc(-c4cnc([C@@H]5CCCN5C(=O)[C@H](NC(=O)c5ccccn5)c5ccccc5)s4)cc3)cc2)s1)c1ccccc1)c1ccccn1", "EC50": 46}
{"smiles": "O=C(N[C@@H](C(=O)N1CCC[C@H]1c1ncc(-c2ccc(-c3ccc(-c4cnc([C@@H]5CCCN5C(=O)[C@H](NC(=O)c5ccccc5)c5ccccc5)s4)cc3)cc2)s1)c1ccccc1)c1ccccc1", "EC50": 21}
{"smiles": "O=C(N[C@@H](C(=O)N1CCC[C@H]1c1ncc(-c2ccc(-c3ccc(-c4cnc([C@@H]5CCCN5C(=O)[C@H](NC(=O)C5CCCCC5)c5ccccc5)s4)cc3)cc2)s1)c1ccccc1)C1CCCCC1", "EC50": 0.25}
{"smiles": "O=C(N[C@@H](C(=O)N1CCC[C@H]1c1ncc(-c2ccc(-c3ccc(-c4cnc([C@@H]5CCCN5C(=O)[C@H](NC(=O)C5CCCC5)c5ccccc5)s4)cc3)cc2)s1)c1ccccc1)C1CCCC1", "EC50": 0.006}
{"smiles": "CC(C)(C)C(=O)N[C@@H](C(=O)N1CCC[C@H]1c1ncc(-c2ccc(-c3ccc(-c4cnc([C@@H]5CCCN5C(=O)[C@H](NC(=O)C(C)(C)C)c5ccccc5)s4)cc3)cc2)s1)c1ccccc1", "EC50": 1.4}
{"smiles": "CCCCCC(=O)N[C@@H](C(=O)N1CCC[C@H]1c1ncc(-c2ccc(-c3ccc(-c4cnc([C@@H]5CCCN5C(=O)[C@H](NC(=O)CCCCC)c5ccccc5)s4)cc3)cc2)s1)c1ccccc1", "EC50": 0.063}
{"smiles": "CCCCC(=O)N[C@@H](C(=O)N1CCC[C@H]1c1ncc(-c2ccc(-c3ccc(-c4cnc([C@@H]5CCCN5C(=O)[C@H](NC(=O)CCCC)c5ccccc5)s4)cc3)cc2)s1)c1ccccc1", "EC50": 0.031}
{"smiles": "CCC(=O)N[C@@H](C(=O)N1CCC[C@H]1c1ncc(-c2ccc(-c3ccc(-c4cnc([C@@H]5CCCN5C(=O)[C@H](NC(=O)CC)c5ccccc5)s4)cc3)cc2)s1)c1ccccc1", "EC50": 0.016}
{"smiles": "CC(=O)N[C@@H](C(=O)N1CCC[C@H]1c1ncc(-c2ccc(-c3ccc(-c4cnc([C@@H]5CCCN5C(=O)[C@H](NC(C)=O)c5ccccc5)s4)cc3)cc2)s1)c1ccccc1", "EC50": 0.02}
{"smiles": "COC(=O)N[C@H](C(=O)N1CCC[C@H]1c1ncc(-c2ccc(-c3ccc(-c4cnc([C@@H]5CCCN5C(=O)[C@@H](NC(=O)OC)C(C)C)s4)cc3)cc2)s1)C(C)C", "EC50": 56}
{"smiles": "CC[C@H](NC(=O)OC)C(=O)N1CCC[C@H]1c1ncc(-c2ccc(-c3ccc(-c4cnc([C@@H]5CCCN5C(=O)[C@H](CC)NC(=O)OC)s4)cc3)cc2)s1", "EC50": 57}
{"smiles": "COC(=O)N[C@H](C(=O)N1CCC[C@H]1c1ncc(-c2ccc(-c3ccc(-c4cnc([C@@H]5CCCN5C(=O)[C@@H](NC(=O)OC)C(C)(C)C)s4)cc3)cc2)s1)C(C)(C)C", "EC50": 471}
